Test results published in paper PMC8140105 (Scientific Reports, 2021).
“Also recorded” adds a separate entry of the source. Each block holds one substance with its values, some of them ahead of it. No end group written: not given here.

What was measured:
BV-2 microglia cells = assay: IL-6 and TNFα determination (ELISA); assay type: cell-based, murine; conditions: BV-2 cells, 10 µM; for microglial activating properties of metabolites (IL-6 production): n = 12
Description: BV-2 cells were a kind gift from Prof. Alba Minelli and were grown in RPMI medium supplemented with 10% fetal bovine serum (FBS) and 1% penicillin-streptromycin solution (Life Technologies, Belgium). The cells were cultured in culture flasks (Greiner, Belgium) in an incubator set at 37 °C and 5% CO2. When confluent, cells were detached using a cell scraper and diluted 1:20 approximately every 4 days. Experiments were performed in serum-free DMEM without phenol red.
To investigate the microglia activating properties of the peptide, IL-6 and TNFα levels were determined in cell-free supernatants of BV-2 microglia cells after treatment. BV-2 cells (2 × 10^5 cells/well) were seeded in 24-well plates and treated with peptide for 20 h. ELISA was performed according to the supplier’s protocol (eBioscience, Vienna, Austria). Briefly, after incubation with biotinylated detection antibody, avidin-HRP conjugate and subsequently chromogenic tetramethylbenzidine (TMB) substrate were added. Absorbance was measured at 450 nm and 570 nm using the Multiskan Ascent 354 microplate reader (Thermofisher, Waltham, USA). Concentrations were determined using the standard curve generated using known concentrations of TNFα and IL-6.

[1] = Multiple time regression (MTR) analysis, blood-to-brain influx; assay type: in vivo, ICR-CD-1 mice; conditions: 125I-labelled, mice, linear model, mean ± standard error
Description: Briefly, 0.1 µmol of the lyophilized peptide was dissolved in 100 µL of phosphate buffer (pH 7.4, 25 mM). A Iodo-Gen coated tube (Thermo Scientific, Merelbeke, Belgium) was first of all rinsed with 1 mL of phosphate buffer. Subsequently, 50 µL of sodium iodide solution (1.1 µmol/mL) and 1 mCi of Na^125I solution (Perking Elmer, Zaventem, Belgium) were transferred into this Iodo-Gen coated tube. The oxidation reaction was allowed to proceed for six minutes at room temperature, after which the iodonium solution was transferred to 50 µL of peptide solution (1 mM). The iodination reaction of the peptide was allowed to proceed for another six minutes at room temperature. Finally, the iodinated peptide was purified using a silver filter (Thermo Scientific, Merelbeke, Belgium).
In order to determine whether the peptide could enter the brain, in vivo multiple time regression (MTR) analysis was performed. ICR-CD-1 mice were anesthetized intraperitoneally using a 40% urethane solution (3 g/kg). […] At specified time points after injection (i.e. 1, 3, 5, 10, 12.5 and 15 min, with start and end in duplicate), blood was obtained from the carotid artery followed by decapitation of the mouse. The isolated brain was weighed and radioactivity measured in a gamma counter for 5 min (Wallac Wizard automatic gamma counter, Perkin Elmer, Shelton, CT, USA), as well as from 50 µL serum, which was obtained by centrifuging the collected blood at 10,000g for 15 min at 21 °C. The linear and biphasic modeling of the multiple time regression analysis was performed as previously described.

faeces homogenate = conditions: ICR-CD-1 mice, 37 °C, up to 60 min
brain homogenate = conditions: ICR-CD-1 mice, 37 °C, up to 60 min
kidney homogenate = conditions: ICR-CD-1 mice, 37 °C, up to 60 min
liver homogenate = conditions: ICR-CD-1 mice, 37 °C, up to 60 min
serum = conditions: 37 °C, up to 60 min

Substance: DEHSFLP [DEHSFLP]
activating properties (IL-6 and TNFα production) (BV-2 microglia cells; scrambled control): no activating properties

Substance: DLPF [metabolite of PapRIV formed in serum]
microglial activating properties of metabolites (IL-6 production) (BV-2 microglia cells): no activating properties

Substance: DLPFEH [main metabolite of PapRIV formed in all matrices]
microglial activating properties of metabolites (IL-6 production) (BV-2 microglia cells): to the same extent as the native sequence

Substance: Dermorphin [reference compound]
Kin ([1]; i.v. (jugular vein), 1–15 min): 0.35 ± 0.05 µL/g/min
Vascular brain distribution volume, V0 ([1]; i.v.): 15.93 ± 0.64 µL/g

Substance: SDLPF [metabolite of PapRIV formed in serum]
microglial activating properties of metabolites (IL-6 production) (BV-2 microglia cells): no activating properties

cleaved bond (faeces homogenate): S1-D2, major
cleaved bond (brain homogenate): S1-D2, major and D2-L
cleaved bond (kidney homogenate): D2-L3; also recorded: S1-D2, major
cleaved bond (liver homogenate): S1-D2, major; also recorded: D2-L3
Substance: SDLPFEH
cleaved bond (serum): S1-D2, major; also recorded: D2-L3; also recorded: F5-E6; also recorded: E6-H7
